Laboratory results from patent publication US20220312768A1, “COMBINATIONS OF AGROCHEMICALS WITH METABOLIC INHIBITORS” (THE BOARD OF TRUSTEES OF THE UNIVERSITY OF ARKANSAS, priority 2021, published 2022).
Several values for one entry are separate records, joined by “and”; a condition that tells them apart may be missing. Identical values can stand only once. Entries after “also recorded” stand apart in the source; their conditions may differ.

Experiments:
Palmer amaranth [1] = experiment: Greenhouse experiment, GST blockers added to KFD-581-01, Palmer amaranth control and biomass reduction; assay type: in vivo, Amaranthus palmi; conditions: for Palmer amaranth control, relative effectiveness of treatments: 7 DAA; for Reduction in above-ground biomass compared to the untreated check / Palmer amaranth control versus KFD-581-01 applied alone: 14 DAA, higher rates + KFD-581-01 300 g ai/ha
Palmer amaranth [2] = system: Palmer amaranth; design: species or system Amaranthus palmeri; conditions: in vivo
[3] = all rates (17, 34, 67 g ai/ha) + KFD-581-01 300 g ai/ha

Row | SMILES | Palmer amaranth control, relative effectiveness of treatments (Palmer amaranth [1]; [3]) | Reduction in above-ground biomass compared to the untreated check (Palmer amaranth [1]) | Palmer amaranth control versus KFD-581-01 applied alone (Palmer amaranth [1]) | Efficacy at the highest rate versus low or mid rates (Palmer amaranth [1]; 67 g ai/ha versus 17 or 34 g ai/ha, + KFD-581-01 300 g ai/ha) | Palmer amaranth control (%) (Palmer amaranth [2]) | Palmer amaranth control, relative effectiveness of treatments (Palmer amaranth [1]; two highest rates (34 and 67 g ai/ha) + KFD-581-01 300 g ai/ha)
1 | O=c1c(O)c(-c2ccc(O)c(O)c2)oc2cc(O)cc(O)c12 [quercetin] | most effective; also recorded: more effective than any rate of curcumin or NBD-CL | largest reductions in biomass | – | – | – | –
2 | O=C(O)/C=C/c1ccc(O)c(O)c1 [caffeic acid] | most effective; also recorded: more effective than any rate of curcumin or NBD-CL | – | increased levels of Palmer amaranth control | decreased efficacy at the highest rate | – | –
3 | O=c1oc2c(O)c(O)cc3c(=O)oc4c(O)c(O)cc1c4c23 [ellagic acid] | most effective; also recorded: more effective than any rate of curcumin or NBD-CL | largest reductions in biomass | increased levels of Palmer amaranth control | – | – | –
4 | CP(=O)(O)CCC(N)C(=O)O (centres unmarked) [Glufosinate, 2-amino-4-[hydroxy(methyl)phosphoryl]butanoic acid] | – | – | – | – | 74% and 60% and 74b % and 60c % | –
5 | O=C(O)[C@H]1O[C@@H](Oc2cc3oc(-c4ccccc4)cc(=O)c3c(O)c2O)[C@H](O)[C@@H](O)[C@@H]1O [baicalin] | – | – | increased levels of Palmer amaranth control | – | – | most effective; also recorded: more effective than any rate of curcumin or NBD-CL
